Measured values: ChEMBL document CHEMBL2069255, “Synthesis and DNA binding properties of 1-(3-aminopropyl)-imidazole-containing triamide f-Im*PyIm: a novel diamino polyamide designed to target 5'-ACGCGT-3'” (Bioorg Med Chem Lett, 2012)
The source made the active and inactive calls. The rule behind the calls is not given here.

What was measured:
Assay type in all cases: nucleic-acid assay
Nucleic Acid [1] = experiment: Binding affinity to AAATTT DNA by SPR assay
Nucleic Acid [2] = experiment: Binding affinity to ACATGT DNA by SPR assay
Nucleic Acid [3] = experiment: Binding affinity to ACGCGT DNA assessed as change in melting temperature by thermal denaturation assay
Nucleic Acid [4] = experiment: Binding affinity to AAATTT DNA assessed as change in melting temperature by thermal denaturation assay
Nucleic Acid [5] = experiment: Binding affinity to ATGCAT DNA assessed as change in melting temperature by thermal denaturation assay
Nucleic Acid [6] = experiment: Binding affinity to ACGCGT DNA by SPR assay
Nucleic Acid [7] = experiment: Binding affinity to ACGCGT DNA by ITC assay

| Ke (Nucleic Acid [1]) | Ke (Nucleic Acid [2]) [×10⁶ /M] | ΔTm (Nucleic Acid [3]) [°C] | ΔTm (Nucleic Acid [4]) [°C] | ΔTm (Nucleic Acid [5]) [°C] | Ke (Nucleic Acid [6]) | Activity (Nucleic Acid [7]) | SMILES |
| --- | --- | --- | --- | --- | --- | --- | --- |
| 2.2 ×10⁶ /M | 3.7 | > 20 | 11 | 20 | 2.3 ×10⁷ /M | Active | CN(C)CCNC(=O)c1nc(NC(=O)c2cc(NC(=O)c3nc(NC=O)cn3CCCN)cn2C)cn1C |
|  |  | > 24 | 10 | 24 | 2.4 ×10⁸ /M | Active | CN(C)CCNC(=O)c1nc(NC(=O)c2cc(NC(=O)c3nc(NC=O)cn3C)cn2CCCN)cn1C |
| 5.3 ×10⁴ /M |  | 7.8 | 1 |  | 1.9 ×10⁸ /M | Active | CN(C)CCNC(=O)c1nc(NC(=O)c2cc(NC(=O)c3nc(NC=O)cn3C)cn2C)cn1C |
